Results: patent US20220306623A1, “PYRIDYL OR PYRIMIDYL MTOR KINASE INHIBITORS” (GLAXOSMITHKLINE INTELLECTUAL PROPERTY DEVELOPMENT LIMITED, priority 2019, published 2022)
Read-outs that look alike come from different tables or passages of the source.

Tested on: type I collagen deposition in primary lung fibroblasts derived from human tissue
Experiment: High throughput type I collagen deposition (scar-in-a-jar) high content screening assay
Assay type: cell-based
Settings: Primary lung fibroblast, 72 h, human pulmonary fibroblasts, 384-well, TGF-β 1 ng/ml 72 h
Protocol: Highthroughput, cellular type I collagen deposition was measured by adapting a published method; scar-in-a-jar (Chen et al., 2009) to primary lung fibroblasts derived from human tissue and combining with high content analysis to permit fluorescent quantification of collagen deposited in the extracellular matrix (ECM). The human biological samples were sourced ethically and their research use was in accordance with the terms of the informed consents.
Test compounds were dissolved in 100% DMSO to give 10 mM (stocks) and further diluted to give half log dilutions to generate an 11 point concentration response curve. 1 ul was transferred to 384-well plates (Greiner Group, Kremsmunster, Austria, Catalogue No Greine 781280r).
Human pulmonary fibroblasts were maintained in DMEM media (Gibco, Catalogue No 21969) supplemented with 4 mM L-glutamine (Gibco Catalogue No 25030-024) and 10% heat inactivated FBS (Gibco, Catalogue No 10099-141) at 37° C. in 10% CO2. Cells were harvested and resuspended at 4×10^6 cells/ml in a T175 cell culture flask (BD Falcom, Catalogue No: 353112) containing 50 mL of culture media. After 4 days 37° C. in 10% CO2, cells were harvested and seeded at 4000 cells per well ([…]) into 384-well plates (BD Falcon, Catalogue No 353962Greiner) in assay media (0.4% heat inactivated FBS, 4 mM L-glutamine). Plates were sealed with breathable seals (Sigma, Catalogue No. BEM-1). Assay plates were incubated for 72 h at 37° C. in 10% CO2.
Assay media was supplemented with 112.5 mg/ml Ficoll 70 (Sigma, Catalogue No F2878), 75 mg/ml Ficoll 400 (Sigma, Catalogue No F4375) and 50 µg/ml ascorbic acid (Sigma, Catalogue No A8960). 30 μL assay media were added to 1 l compound ([…] compound concentration in 1% DMSO). Diluted compounds (10 μL) were transferred to plates containing cells and incubated for 3 h at 37° C. in 10% CO2. Transforming growth factor (TGF)-β (R&D systems, Catalogue No 100-B/CF) was reconstituted to give 10 µg/mL (stock) and further diluted in assay media containing Ficoll and ascorbic acid (1 in 3333). TGF-β was added to cell plates (1 ng/ml final) and cells incubated for 72 h at 37° C. in 10% CO2.
Media was aspirated from cells and 30 µL/well 100% ice-cold methanol added and incubated at RT for 5 min to fix cells. Methanol was aspirated and cells washed with PBS (3×). To block and permeabilise, cells were incubated with PBS containing 1% BSA and 0.1% Triton X 100 for 20 min, followed by PBS wash (3×). Cells were incubated with mouse anti human type I collagen monoclonal antibody (Sigma, Catalogue No C2456) diluted 1:1000 in PBS for 24 h at 4° C. Cells were washed with PBS containing 0.1% Tween-20 (3×) and incubated with secondary alexa fluor 488 goat-anti-mouse antibody (Invitrogen, Catalogue No A11001, 1 in 500 in PBS) and Hoechst 33342 (Sigma, Catalogue No H21492), 1 in 1000 in PBS) for 1 h at RT, prior to washing with PBS containing 0.1% Tween (×4).
Type I collagen immunoreactivity was detected using the INCell 2000 Analyzer (GE Healthcare, INcell 2000) set to excitation and emission wavelengths for DAPI and FITC with laser focus and exposure adjusted to appropriate levels. Images were imported and analysed using Columbus software (Perkin Elmer) and computational algorithms to quantify “total collagen area” and “cell count”.
Data analysis was performed by determining 0/inhibition values for test compounds relative to the minimum (media only) and maximum responses (TGF-βstimulation) with non-linear regression analysis to determine IC50 values for test compounds.

[1] = selected compounds, read-out: Scar in a jar (mean pIC50 values when tested in the scar-in-a-jar assay) (converted)
[2] = total collagen area, read-out: mean pIC50, high throughput type I collagen deposition (scar-in-a-jar) (converted)

Row | SMILES | IC50 [1] [nM] | IC50 [2] [nM]
1 | CC[C@H]1COCCN1c1cc(CS(C)(=O)=O)nc(-c2ccc3[nH]c(CNC)cc3n2)n1 [Example 1, [(5-{4-[(3S)-3-ethylmorpholin-4-yl]-6-(methanesulfonylmethyl)pyrimidin-2-yl}-1H-pyrrolo[3,2-b]pyridin-2-yl)methyl](methyl)amine] | 251 | 20 to 3160
2 | CC[C@H]1COCCN1c1cc(CS(C)(=O)=O)nc(-c2ccc3[nH]c(CO)cc3n2)n1 [Example 2, (S)-(5-(4-(3-ethylmorpholino)-6-((methylsulfonyl)methyl)pyrimidin-2-yl)-1H-pyrrolo[3,2-b]pyridin-2-yl)methanol] | – | 20 to 3160
3 | CC[C@H]1COCCN1c1cc(C2(S(C)(=O)=O)CCOCC2)nc(-c2ccc3[nH]c(CO)cc3n2)n1 [Example 4, (5-{4-[(3S)-3-ethylmorpholin-4-yl]-6-(4-methanesulfonyloxan-4-yl)pyrimidin-2-yl}-1H-pyrrolo[3,2-b]pyridin-2-yl)methanol] | – | 20 to 3160
4 | CC[C@H]1COCCN1c1cc(CS(N)(=O)=O)nc(-c2ccc3[nH]c(CNC)cc3n2)n1 [Example 6, {6-[(3S)-3-ethylmorpholin-4-yl]-2-{2-[(methylamino)methyl]-1H-pyrrolo[3,2-b]pyridin-5-yl}pyrimidin-4-yl}methanesulfonamide] | – | 20 to 3160
5 | CNCc1cc2nc(-c3cc(CS(C)(=O)=O)cc(N4CCO[C@H](C)[C@H]4C)n3)ccc2[nH]1 [Example 8, 1-(5-(6-((2R,3R)-2,3-dimethylmorpholino)-4-((methylsulfonyl)methyl)pyridin-2-yl)-1Hpyrrolo[3,2-b]pyridin-2-yl)-Nmethylmethanamine] | – | 20 to 3160
6 | CC[C@H]1COCCN1c1cc(CS(=O)(=O)N(C)C)nc(-c2ccc3[nH]c(CO)cc3n2)n1 [Example 9, 1-{6-[(3S)-3-ethylmorpholin-4-yl]-2-[2-(hydroxymethyl)-1H-pyrrolo[3,2-b]pyridin-5-yl]pyrimidin-4-yl}-N,N-dimethylmethanesulfonamide] | – | 20 to 3160
7 | CC[C@H]1COCCN1c1cc(CS(=O)(=O)NC)nc(-c2ccc3[nH]c(CO)cc3n2)n1 [Example 10, 1-{6-[(3S)-3-ethylmorpholin-4-yl]-2-[2-(hydroxymethyl)-1H-pyrrolo[3,2-b]pyridin-5-yl]pyrimidin-4-yl}-N-methylmethanesulfonamide] | – | 20 to 3160
8 | CC[C@H]1COCCN1c1cc(C2(S(C)(=O)=O)CCOCC2)nc(-c2ccc3[nH]c(C)cc3n2)n1 [Example 13, (3S)-3-ethyl-4-[6-(4-methanesulfonyloxan-4-yl)-2-{2-methyl-1H-pyrrolo[3,2-b]pyridin-5-yl}pyrimidin-4-yl]morpholine] | – | 20 to 3160
9 | CC[C@H]1COCC(=O)N1c1cc(CS(C)(=O)=O)nc(-c2ccc3[nH]c(C)cc3n2)n1 [Example 14, (5S)-5-ethyl-4-[6-(methanesulfonylmethyl)-2-{2-methyl-1H-pyrrolo[3,2-b]pyridin-5-yl}pyrimidin-4-yl]morpholin-3-one] | 25.1 | 20 to 3160
10 | CCc1cc2nc(-c3nc(CS(C)(=O)=O)cc(N4C(=O)COC[C@@H]4CC)n3)ccc2[nH]1 [Example 15, (5S)-5-ethyl-4-(2-{2-ethyl-1H-pyrrolo[3,2-b]pyridin-5-yl}-6-(methanesulfonylmethyl)pyrimidin-4-yl)morpholin-3-one] | 158 | 20 to 3160
11 | CC[C@H]1COCCN1c1cc(CS(=O)(=O)N(C)C)nc(-c2ccc3[nH]c(CNC)cc3n2)n1 [Example 16, 1-{6-[(3S)-3-ethylmorpholin-4-yl]-2-{2-[(methylamino)methyl]-1H-pyrrolo[3,2-b]pyridin-5-yl}pyrimidin-4-yl}-N,N-dimethylmethanesulfonamide] | 100 | 20 to 3160
12 | CC[C@H]1COCCN1c1cc(C2(S(C)(=O)=O)CCNCC2)cc(-c2ccc3[nH]c(C)cc3n2)n1 [Example 18, (S)-3-ethyl-4-(6-(2-methyl-1H-pyrrolo[3,2-b]pyridin-5-yl)-4-(4-(methylsulfonyl)piperidin-4-yl)pyridin-2-yl)morpholine] | 158 | 20 to 316
13 | CC[C@H]1COCCN1c1cc(CS(N)(=O)=O)cc(-c2ccc3[nH]c(C)cc3n2)n1 [Example 23, (S)-(2-(3-ethylmorpholino)-6-(2-methyl-1H-pyrrolo[3,2-b]pyridin-5-yl)pyridin-4-yl)methanesulfonamide] | – | 20 to 3160
14 | CC[C@H]1COCC(=O)N1c1cc(CS(C)(=O)=O)cc(-c2ccc3[nH]c(C)cc3n2)n1 [Example 24, (S)-5-ethyl-4-(6-(2-methyl-1H-pyrrolo[3,2-b]pyridin-5-yl)-4-((methylsulfonyl)methyl)pyridin-2-yl)morpholin-3-one] | 126 | 20 to 3160
15 | CC[C@H]1COCC(=O)N1c1cc(C2(S(C)(=O)=O)CCOCC2)cc(-c2ccc3[nH]c(C)cc3n2)n1 [Example 25, (S)-5-ethyl-4-(6-(2-methyl-1H-pyrrolo[3,2-b]pyridin-5-yl)-4-(4-(methylsulfonyl)tetrahydro-2H-pyran-4-yl)pyridin-2-yl)morpholin-3-one] | – | 20 to 3160
16 | CC[C@H]1COCC(=O)N1c1cc(C2(S(C)(=O)=O)CCOCC2)cc(-c2ccc3[nH]c(CO)cc3n2)n1 [Example 26] | – | 20 to 3160
17 | CC[C@H]1COCC(=O)N1c1cc(CS(C)(=O)=O)cc(-c2ccc3[nH]c(CO)cc3n2)n1 [Example 27] | – | 20 to 3160
